The numbers were not newly measured in US11576379B2, “Antimicrobial composition comprising alkylated polyvinylpyrrolidone polymer” (The Procter & Gamble Company, priority 2019, dated 2023), which cites them from elsewhere.

Regarding `CC(=O)O.CC(=O)O.NC(=N\CCCCCC/N=C(N)/N=C(\N)Nc1ccc(Cl)cc1)/N=C(\N)Nc1ccc(Cl)cc1` [Chlorhexidine diaceate, Chlorhexidine diacetate], the Solubility in water is listed as about 1%.
